Article PMC2937036 (PLoS ONE, 2010)
Where a SMILES comes first, the peptide text is derived from it. Bridges are numbered along the chain shown (N, C = ends).

Legend:
[1] = biological target: bovine serum albumin (BSA) (Bos taurus, UniProt P02769); test: biochemical
Description: The potential for interactions between various peptides and bovine and human serum albumin (BSA and HSA) were studied by microcalorimetry.
ITC experiments were performed at 25°C on a Microcal VP-ITC microcalorimeter with data analysis performed with the Microcal Origin software. The sample cell contained 0.1 mM of either BSA or HSA dissolved in 20 mM HEPES, 100 mM NaCl, pH 7.9. The syringe was loaded with 2 mM test peptide in the same buffer, and each titration point resulted from 5 µL injections following an initial 2 µL injection. Separate control experiments were also performed to account for heats of dilution/mixing.

[2] = tested on: Escherichia coli ML35; test: Bactericidal assay (LD99.9), E. coli; assay type: cell-based; details: 10 mM phosphate buffer pH 7.0 with 1% TSB, 2 h, 37°C
Description: (§1) The peptides were tested for microbicidal activities against Bacillus subtilis ATCC6633, Escherichia coli ML35, and Staphylococcus aureus 42D as previously described. Suspensions of logarithmically growing test bacteria were incubated on a microtiter plate at a concentration of 10^5 colony-forming units/mL with various peptide dilutions. The medium was 100 µL of 10 mM phosphate buffer pH 7.0 supplemented with 1% (v/v) of tryptic soy broth (TSB). For later assays, human male serum was also added to a final concentration of 25%. 10 µL aliquots were collected at time 0 h and after 2 h of incubation on a rotary shaker (300 rpm) at 37°C. These were plated on blood agar plates and incubated overnight at 37°C. The Lethal Dose concentration (LD99.9) was determined, corresponding to the concentration killing >99.9% of the inoculum at 2 h. These experiments were performed in duplicate.
(§2) For the testing of the peptides' activities in different conditions, e.g. with serum, we use the same cut-off for activity as defined for Minimum Bactericidal Concentration (MBC), i.e. a 1000-fold reduction of the inoculum. However, we designate this peptide concentration with the more general term LD99.9 which can be applied to the specified conditions of the experiments performed here.

[3] = in vitro; details: male, human, 25% human male serum
Description: To investigate the effects of the modifications on proteolytic susceptibility, the disappearance of the intact peptides incubated in diluted human serum at 37°C was followed by RP-HPLC. […] Incubations were normally done for 9 h and, in some cases, longer.
Peptide stabilities were assayed in diluted serum as previously described. 25% human male serum was centrifuged at 13,000 rpm for 10 min to remove lipids and the supernatant was collected and incubated at 37°C for at least 15 min. The assay was initiated upon the addition of the test peptide to the serum for a final peptide concentration of 5 µM. 200 µL aliquots of the incubations were taken for the following time points: 0, 30, 75, 120, 240, 390 and 540 min. The aliquots were mixed with 40 µL of 15% trichloroacetic acid (TCA) and incubated at 4°C for at least 15 min to precipitate serum proteins. In the case of Com5 and Com6, 5 µL of 1 M NaOH was supplemented to the TCA to prevent peptide precipitation. The supernatant was collected for each sample after centrifugation at 13,000 rpm for 10 min and stored at −20°C. These assays were performed in triplicate.
Reverse phase high performance liquid chromatography (RP-HPLC) analysis was performed with an AKTA Purifier from Amersham Biosciences (Westborough, MA) using an uRPC C2/C18 ST 4.6/100 column from Pharmacia Biotech (SanJose, CA) of the following dimensions: bed length 100 mm, i.d. 4.6 mm, 120Å. Individually thawed samples were injected through a 100 µL loop, after which a linear gradient was run from 100% solution A (0.05% trifluoroacetic acid (TFA) in filtered water) to 100% solution B (0.045% TFA in 90% acetonitrile) with a flow rate at 0.5 mL/min. The relative concentrations of the remaining soluble peptides were analyzed by the integration of the absorbance at 215 nm as a function of retention time using the Analysis module of the Unicorn software package.

[4] = tested on: Staphylococcus aureus 42D; test: Bactericidal assay (LD99.9), S. aureus in 25% human serum; assay type: cell-based; details: unit not given (Table 3 uses µM)
Description: In order to be able to make a direct comparison with our serum stability measurements, a few peptides were selected to be tested for antimicrobial activity in 25% human serum (Table 4). […] All LD99.9 values are higher compared to the initial assays in 10 mM sodium phosphate buffer. Contributing factors to this general loss in activity could be the increased ionic concentration, interactions with serum components such as albumin or other proteins, and peptide degradation. Both hexamers with unprotected termini, Lfc1 and Com1, are no longer active while the cyclized short peptides remained fairly antimicrobial. In human serum, Lfc5 and Lfc6 are equally anti-staphylococcal. This reflects a greater loss of activity for Lfc6, but also coincides with the lower serum stability that this peptide has compared to Lfc5 (Fig. 2C). The activities of the cyclized Com peptides were all lowered equally with a 16-fold increase in LD99.9 values compared to activities in serum-excluded media and this agrees with their similar stability profiles (Fig. 2D).
as §1, §2

[5] = tested on: Bacillus subtilis ATCC6633; test: Bactericidal assay (LD99.9), B. subtilis; assay type: cell-based; details: 10 mM phosphate buffer pH 7.0 with 1% TSB, 2 h, 37°C
Description: as §1, §2

[6] = tested on: Staphylococcus aureus 42D; test: Bactericidal assay (LD99.9), S. aureus; assay type: cell-based; details: 10 mM phosphate buffer pH 7.0 with 1% TSB, 2 h, 37°C
Description: as §1, §2

bovine serum albumin (BSA), sequence (P02769 25-607): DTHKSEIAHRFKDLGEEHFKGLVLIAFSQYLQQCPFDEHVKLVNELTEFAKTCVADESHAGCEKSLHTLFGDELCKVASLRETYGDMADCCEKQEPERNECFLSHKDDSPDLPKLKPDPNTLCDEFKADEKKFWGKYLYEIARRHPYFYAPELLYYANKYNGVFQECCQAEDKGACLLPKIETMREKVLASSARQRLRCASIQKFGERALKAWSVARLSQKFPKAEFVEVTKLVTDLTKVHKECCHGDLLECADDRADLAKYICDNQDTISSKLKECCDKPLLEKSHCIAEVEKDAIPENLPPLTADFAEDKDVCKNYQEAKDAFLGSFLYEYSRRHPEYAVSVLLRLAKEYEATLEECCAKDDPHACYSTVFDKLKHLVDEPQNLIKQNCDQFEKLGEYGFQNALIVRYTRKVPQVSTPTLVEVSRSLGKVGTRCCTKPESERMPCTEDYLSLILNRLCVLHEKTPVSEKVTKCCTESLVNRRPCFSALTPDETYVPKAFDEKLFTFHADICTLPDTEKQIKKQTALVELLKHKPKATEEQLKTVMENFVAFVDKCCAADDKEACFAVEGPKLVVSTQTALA

For CC(=O)N[C@H]1CSSC[C@@H](C(N)=O)NC(=O)[C@H](Cc2ccccc2)NC(=O)[C@H](CCCNC(=N)N)NC(=O)[C@H](Cc2c[nH]c3ccccc23)NC(=O)[C@H](Cc2c[nH]c3ccccc23)NC(=O)[C@H](CCCNC(=N)N)NC(=O)[C@H](CCCNC(=N)N)NC1=O [Com7, CH3CO-CRRWWRFC-NH2] (Ac-CRRWWRFC-NH2; disulfide 1-8), which Kd [1] is on record?
Its Kd is 210 µM.

And the “99.9% Lethal Dose Concentration (LD99.9) E. coli” value [2]?
Its value is 30 µM.

What about the remaining at 6.5 h, 5 µM [3] of the same compound?
Its remaining at 6.5 h, 5 µM is about 50%.

What about the “LD99.9 anti-S. aureus in 25% human serum” value [4] of the same compound?
The value was 30.

What about the “99.9% Lethal Dose Concentration (LD99.9) B. subtilis” value [5] of the same compound?
Its value is at most 0.45 µM.

And the “99.9% Lethal Dose Concentration (LD99.9) S. aureus” value [6]?
The value was 1.9 µM.
